In US7265152B2 (ViroPharma Incorporated, priority 2002, dated 2007) one finds EC50 and IC50 data, which are given here for 12 compounds.

In assay [1] the test system is HCV replicon (BB7 sequence) in Huh-7-Clone A cells. The assay can be described thus: HCV replicon assay: ELISA of NS5A protein in replicon-containing cells (Inhibition of Viral RNA Replication). The assay is classed as cell-based. The note with it: Hepatitis C virus, read-out: Replicon. The gist of the method: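 EC50 taken from an 8-point serially diluted dose curve, with NS5A level as read-out: fixed cells probed with primary monoclonal and HRP-conjugated secondary, TMB developed 30 min, OD 650 nm. Compound exposure 72 h in Huh-7-Clone A replicon cells (BB7 sequence).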

In another assay the target is T1, HCV NS5B (Hepatitis C virus genotype 1b, UniProt Q9WMX2).
T1 construct: fusion protein, of which the carboxyl terminal 21 amino acids were removed to enhance its solubility; His tag (GSHHHHHH); made in house; host or cells: E. coli
The assay can be described thus: Inhibition of viral RNA-dependent RNA polymerase (RdRp), in vitro biochemical assay. More on the design: species or system HCV genotype 1b virus (BB7). The settings on record: read-out: HCV pol-BB7 IC50. In short, it runs like this: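 IC50 values are the concentrations that halve in vitro RNA synthesis by HCV NS5B polymerase. The enzyme was a C-terminally truncated (Δ21), His-tagged genotype 1b (BB7 consensus) protein purified from E. coli.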

[2] abbreviates: HCV replicon assay, ranges of EC50.
The mark [3] stands for this setting: HCV NS5B RdRp, BB7, class symbols A-D.
[4] abbreviates: HCV NS5B RdRp, BB7, reported as range class.
[5] abbreviates: ranges of EC50 in HCV replicon assay.

The structures appear in SMILES notation. Where two headings read alike, the source gives them in different places.

For the compound `CNC(=O)c1c(-c2ccc(F)cc2)oc2cc(N(C)S(C)(=O)=O)c(OCc3csc(C)n3)cc12` [Example 320, 2-(4-Fluoro-phenyl)-6-(methanesulfonyl-methyl-amino)-5-(2-methyl-thiazol-4-ylmethoxy)-benzofuran-3-carboxylic acid methylamide], the EC50 in assay [1] (setting [2]) was under 1000 nM. The IC50 on HCV NS5B (setting [3]) is at most 500 nM.

As to `CNC(=O)c1c(-c2ccc(F)cc2)oc2cc(-c3cc(C)on3)c(OC(C)C)cc12` [Example 283, 2-(4-Fluoro-phenyl)-5-isopropoxy-6-(5-methyl-isoxazol-3-yl)-benzofuran-3-carboxylic acid methylamide], the EC50 in assay [1] (setting [2]) is under 1000 nM. Moreover, at HCV NS5B (setting [3]), the 50% inhibitory concentration (IC50) was at most 500 nM.

Consider `CNC(=O)c1c(-c2ccc(F)cc2)oc2cc(C(C)NC)c(OC)cc12` (stereo not drawn) [Example 304, 2-(4-Fluoro-phenyl)-5-methoxy-6-(1-methylamino-ethyl)-benzofuran-3-carboxylic acid methylamide], for which the EC50 in assay [1] (setting [2]) is over 30000 nM. Further, the half-maximal inhibitory concentration (IC50) at HCV NS5B (setting [3]) lay in the range of 500 to 5000 nM.

On to `CNC(=O)c1c(-c2ccc(F)cc2)oc2cc(N(C)S(C)(=O)=O)c(OCCn3nc(C)cc3C)cc12` [Example 425, 5-[2-(3,5-Dimethyl-pyrazol-1-yl)-ethoxy]-2-(4-fluoro-phenyl)-6-(methanesulfonyl-methyl-amino)-benzofuran-3-carboxylic acid methylamide], for which the EC50 in assay [1] (HCV replicon assay, ranges of 50% effective concentration (EC50)) was under 1000 nM. At HCV NS5B (HCV NS5B polymerase, BB7 (genotype 1b), values given as range classes A-D), the IC50 was at most 500 nM.

On to `CNC(=O)c1c(-c2ccc(F)c(C)c2)oc2ccc(OC)cc12` [Example 71, 2-(4-Fluoro-3-methyl-phenyl)-5-methoxy-benzofuran-3-carboxylic acid methylamide], for which, in assay [1] (Huh-7-Clone A, NS5A ELISA, 72-hour incubation, ranges of EC50), the EC50 is under 30000 nM. At HCV NS5B (purified His-tagged NS5B (BB7), carboxyl terminal 21 amino acids removed), the IC50 was at most 500 nM.

Take `CNC(=O)c1c(-c2ccc(F)cc2)oc2cc(-c3ccn(C)n3)c(OC(C)C)cc12` [Example 232, 2-(4-Fluoro-phenyl)-5-isopropoxy-6-(1-methyl-1H-pyrazol-3-yl)-benzofuran-3-carboxylic acid methylamide]: in assay [1] (HCV replicon, range of EC50), the EC50 is under 10000 nM. Also, at HCV NS5B (setting [4]), the IC50 lay within 500 to 5000 nM.

Regarding `CNC(=O)c1c(-c2ccc(F)cc2)oc2cc(N3CCOCC3)c(OCCCl)cc12` [Example 180, 5-(2-Chloro-ethoxy)-2-(4-fluoro-phenyl)-6-morpholin-4-yl-benzofuran-3-carboxylic acid methylamide], the EC50 in assay [1] (HCV replicon, range of EC50) was over 30000 nM. Moreover, the IC50 on HCV NS5B (setting [4]) was at most 500 nM.

Consider `CNC(=O)c1c(-c2ccc(F)cc2)oc2cc(N(C)S(C)(=O)=O)c(OCc3cc(OC)cc(OC)c3)cc12` [Example 352, 5-(3,5-Dimethoxy-benzyloxy)-2-(4-fluoro-phenyl)-6-(methanesulfonyl-methyl-amino)-benzofuran-3-carboxylic acid methylamide], for which the EC50 in assay [1] (setting [2]) is under 1000 nM. For the same compound, the concentration for half-maximal inhibition (IC50) on HCV NS5B (HCV NS5B RdRp, BB7, activity class) is at most 500 nM.

For the compound `CC(C)Oc1cc2c(C(=O)NC3CC3)c(-c3ccc(F)cc3)oc2cc1NS(C)(=O)=O` [Example 199, 2-(4-Fluoro-phenyl)-5-isopropoxy-6-methanesulfonylamino-benzofuran-3-carboxylic acid cyclopropylamide], the EC50 in assay [1] (HCV replicon, range of EC50) is under 1000 nM. In addition, the concentration for half-maximal inhibition (IC50) on HCV NS5B (setting [4]) is at most 500 nM.

For `CNC(=O)c1c(-c2ccc(F)cc2)oc2cc(N3CCCS3(=O)=O)c(OC(C)C)cc12` [Example 134, 6-(1,1-Dioxido-isothiazolidin-2-yl)-2-(4-fluoro-phenyl)-5-isopropoxy-benzofuran-3-carboxylic acid methylamide], the EC50 in assay [1] (setting [5]) was under 10000 nM. At HCV NS5B (HCV NS5B RdRp, BB7 genotype 1b), the IC50 is 500 to 5000 nM.

`CNC(=O)c1c(-c2ccc(F)cc2)oc2cc(C(C)=O)c(OC)cc12` [Example 261, 6-Acetyl-2-(4-fluoro-phenyl)-5-methoxy-benzofuran-3-carboxylic acid methylamide]: the EC50 in assay [1] (setting [2]) was under 1000 nM. Further, the IC50 at HCV NS5B (setting [3]) was at most 500 nM.

For the compound `CNC(=O)c1c(-c2ccc(F)cc2)oc2cc(-c3ccoc3)c(OC(C)C)cc12` [Example 152, 2-(4-Fluoro-phenyl)-6-furan-3-yl-5-isopropoxy-benzofuran-3-carboxylic acid methylamide], in assay [1] (setting [5]), the EC50 was under 10000 nM. The half-inhibitory concentration (IC50) on HCV NS5B (HCV NS5B RdRp, BB7 genotype 1b) was at most 500 nM.
